This is an account of results in patent US10005801B2 (priority 2016, dated 2018).

Structures are written as SMILES. Where “and” joins values, the source holds several entries; their conditions need not be identical. Identical values can stand only once. Entries after “also recorded” stand apart in the source; their conditions may differ. Like-named read-outs stand apart in the source and are kept apart here.

Series [1] relates to H9c2 cardiomyoblasts. In words: Anoxia/reoxygenation (A/R)-induced cellular injury, CCK-8 cell viability. The format is cell-based. Conditions: for protection against A/R-induced cellular damage (cell viability): H9c2, 12, 25 and 50 μM for 1 h during anoxia, then reoxygenation. The protocol: FIG. 3B. […] During anoxia various concentrations of JK-1 and JK-2 were added into medium and incubated for 1 h, respectively. Then the cells underwent a reoxygenation process. After the treatments, the CCK-8 assay was performed to detect cell viability. Data was expressed as the mean±SEM. **P<0.01 vs the control group, #P<0.05, ##P<0.01 vs A/R alone group.
The cell counting kit (CCK)-8 was applied to measure the cell viability of HeLa cells cultured in 96-well plates. After the indicated cell treatment, 100 μL of CCK-8 solution at 1:10 dilution was added to each well and cells were incubated for a further 3 h at 37° C. Absorbance was measured at 450 nm with a microplate reader. The mean optical density (OD) of 4 wells in each group was used to calculate cell viability as follows: (experiments were performed in triplicate)
The effect of H2S as a cardioprotective agent against myocardial ischemia reperfusion (MI/R) injury is known in the art. The mechanisms include reducing oxidative stress, preserving mitochondrial function, decreasing myocardial inflammation, and improving angiogenesis. […] To establish the cellular model of MI/R injury, H9c2 cardiomyoblasts were exposed to anoxia/reoxygenation (A/R) treatment, together with increasing concentrations of H2O2 (100-400 μM). […] Since the median lethal concentration of H2O2 in H9c2 cells was approximately 400 μM, this concentration was used for our studies.
The protective effects of the disclosed compounds against A/R-induced cellular damage was examined. In these experiments, H9c2 cells were pretreated with JK-1 or JK-2 at various concentrations (12, 25 and 50 μM) for 1 h during anoxia. Cells then underwent a reoxygenation process, after which cell viability was analyzed.

Series [2] concerns HeLa cells. Description: H2S production in cells, WSP-5 fluorescent probe imaging. The format is cell-based. The settings on record: 200 μM donor, 1 h.
Series [3] deals with myocardial ischemia/reperfusion (MI/R) injury. Description: Circulating cardiac troponin I in MI/R murine model. The settings on record: 50 μg/kg (p<0.05) or 100 μg/kg (p<0.01), blood at 4 h of reperfusion.
Protocol: Blood was collected at 4 hours of reperfusion, and circulating cardiac troponin I levels were measured.
Surgical occlusion of the left coronary artery (LCA), infarct size determination, and troponin I (TnI) measurements were performed as previously described. ^1C57BL6/J male mice (10-12 weeks of age) were anesthetized using pentobarbital (50 mg/kg) and ketamine (60 mg/kg) and maintained under anesthesia throughout the procedure with additional administration of pentobarbital (50 mg/kg). […] A hair removal compound was used to remove the hair on the chest of mice. The area was then cleaned using betadine and alcohol wipes alternating 3 times. The chest was opened with via a median sternotomy and the exposed ribs, muscle, and tissues were cauterized to prevent bleeding. The LCA was visualized using a dissection microscope with a fiber optic light ring, and using a 7-0 silk suture, a 3-5 mm piece of PE-10 tubing was secured over the LCA, occluding the artery. Mice were subjected to 45 min of myocardial ischemia followed by reperfusion. At the time of reperfusion, an injection of vehicle (saline), JK-1 (50 μg/kg and 100 μg/kg), or JK-2 (50 μg/kg and 100 μg/kg) was given i.c. The chest was closed in layers, closing the muscle layer first, then the skin. Mice were removed from ventilation once pedal reflex returned and it was determined that respiration was spontaneous. Mice were placed in a recovery cage and supplied with 100% O2 via a nose cone. Reperfusion was allowed for 24 h, and blood samples for TnI measurements were taken at 4 h after time of reperfusion.
Blood samples were collected via a tail vein at 4 h of reperfusion. Cardiac troponin I level was measured in serum using the Life Diagnostic high sensitivity mouse cardiac troponin I ELISA kit following the manufacturer's instructions.
The format of series [4] is physicochemical. Conditions: for H2S release under weak acidic pH: pH 5 and 6, PBS buffer; for H2S release under neutral and weak basic pH: pH 7.4 and 8, PBS buffer.
Series [5] has as its system myocardial ischemia/reperfusion (MI/R) injury. Also on record: species or system mice. Conditions: mouse, in vivo.
Series [6] relates to TAC-induced heart failure. Description: Transverse aortic constriction (TAC) heart failure model, echocardiography. In kind it is in vivo, C57BL6/J mice. The settings on record: 100 μg/kg once daily i.p. from 3 weeks post-TAC, 14 weeks. The protocol:
FIG. 7. Left ventricular dimensions at end-diastole (LVEDD) and at end-systole in millimeters (mm) at baseline and following heart failure in C57BL6/J mice. Mice were subjected to transverse aortic constriction (TAC) surgery to induce pressure overload hypertrophy and heart failure with reduced ejection fraction. LVEDD and LVESD were measured using high-resolution echocardiography at baseline and every 2 weeks thereafter for a period of 14 weeks. The H2S donor, (JK1) was administered starting at 3 weeks post-TAC at a dose of 100 μg/kg administered once daily via intraperitoneal injection. […] Following heart failure the heart dilates and this adverse remodeling response contributes to reduced cardiac function.
FIG. 8. Interventricular septum thickness measured at end-diastole (IVSd) and at end-systole (IVSs) in millimeters (mm) at baseline and following heart failure in C57BL6/J mice. Mice were subjected to transverse aortic constriction (TAC) surgery to induce pressure overload hypertrophy and heart failure with reduced ejection fraction. IVSd and IVSs were measured using high-resolution echocardiography at baseline and every 2 weeks thereafter for a period of 14 weeks. The H2S donor, (JK1) was administered starting at 3 weeks post-TAC at a dose of 100 μg/kg administered once daily via intraperitoneal injection. […] Myocardial wall thinning is a significant pathological component of heart failure.
(§1) FIG. 9. Left ventricular (LV) posterior wall thickness (PW) measured at end-diastole (d) and at end-systole (s) in millimeters (mm) at baseline and following heart failure in C57BL6/J mice. Mice were subjected to transverse aortic constriction (TAC) surgery to induce pressure overload hypertrophy and heart failure with reduced ejection fraction LVPWd and LVPWs were measured using high-resolution echocardiography at baseline and every 2 weeks thereafter for a period of 14 weeks. The H2S donor, (JK1) was administered starting at 3 weeks post-TAC at a dose of 100 μg/kg administered once daily via intraperitoneal injection.
as §1, with “10.” for “9.”, “ejection fraction (EF)” for “posterior wall thickness (PW) measured at end-diastole (d)”, “fractional shortening (FS)” for “at end-systole (s) in millimeters (mm)”, “fraction. LVEF (%)” for “fraction LVPWd”, “LVFS (%)” for “LVPWs”, “injection. LVEF and LVFS are clinically utilized measures of cardiac function.” for “injection.”

Series [7] in a line: Circulating free H2S level, gas chromatography and chemiluminescence. In kind it is in vivo, mice. Conditions: plasma, 15 minutes after administration, 50 μg/kg (p<0.05) or 100 μg/kg (p<0.001). The protocol:
FIG. 5. […] Blood was collected 15 minutes after the administration of JK-2. Circulating free H2S levels were measured from plasma samples using gas chromatography and chemiluminesence methods.

[8] abbreviates: 100 μM donor, PBS buffer pH 5.0, 6.0, 7.4, 8.0, time-dependent.

In the case of `O=C(O)CNP(O)(=S)c1ccccc1` (centres unmarked) [JK-1], the “protection against A/R-induced cellular damage (cell viability)” value in series [1] is listed as “significant attenuation of A/R induced damage”. For the same molecule, the “H2S production in cells (WSP-5 fluorescence)” value in series [2] is “much weaker fluorescence”. Also, the “circulating cardiac troponin I level” value in series [3] is “significantly lowered; also recorded: significantly reduced”. For the same molecule, the H2S release entry in series [4] (setting [8]) is on record as “much-enhanced H2S releasing ability”. Besides, in series [4], the “H2S release under weak acidic pH” value is “only released H2S under weak acidic pH”; the “H2S release under neutral and weak basic pH” value is recorded as “barely detectable H2S”. In series [5], the myocardial infarct size entry is “significantly reduced”; the “reduction of infarct size per area-at-risk (INF/AAR)” value was 43% and 64%. In series [6], the “interventricular septum thickness (IVSd, IVSs)” value was “significantly preserved IVSd and IVSs”; the “left ventricular dilatation (LVEDD, LVESD)” value was “significantly reduced left ventricular dilatation”; the “left ventricular ejection fraction (LVEF) and fractional shortening (LVFS)” value is “significantly preserved both LVEF and LVFS”; the “left ventricular posterior wall thickness (LVPWd, LVPWs)” value is on record as “significantly preserved left ventricular wall thickness”.

On to `OO` [H2O2, reference compound], for which the “H2O2 median lethal concentration” value in series [1] (H9c2 cells, A/R treatment together with H2O2 (100-400 μM)) is recorded as “approximately 400 μM”.

Turning to `O=C([O-])C(Cc1ccccc1)NP([O-])(=S)c1ccccc1.[Li+].[Li+]` (centres unmarked) [JK-2], the “protection against A/R-induced cellular damage (cell viability)” value in series [1] was “significant attenuation of A/R induced damage”. Moreover, in series [2], the “H2S production in cells (WSP-5 fluorescence)” value was “strong fluorescence”. For the same molecule, the “circulating cardiac troponin I level” value in series [3] is “significantly lowered; also recorded: significantly reduced”. Besides, the “circulating free H2S level” value in series [7] is “significant increase; also recorded: significantly higher”. The H2S release result in series [4] (setting [8]) is “much-enhanced H2S releasing ability”. For the same molecule, in series [4], the “H2S release under weak acidic pH” value is listed as “much faster release”; the “H2S release under neutral and weak basic pH” value was “slow and sustained H2S release”. In series [5], the myocardial infarct size result was “significantly reduced”; the “reduction of infarct size per area-at-risk (INF/AAR)” value was 55% and 56%.

With `O=C([O-])C1CCCN1P([O-])(=S)c1ccccc1.[Li+].[Li+]` (centres unmarked) [JK-5], in series [4] (pH 5), the H2S release entry is “not to release H2S at all”.
